From patent publication US20220127297A1, “Novel Antibacterial 3"-Derivatives Of 4,6-Disubstituted 2,5-Dideoxystreptamine Aminoglycoside Antibiotics” (AGILeBiotics B.V., priority 2018, published 2022)
In brackets after ≈: the same amount, converted by molar mass. Read-outs that look alike come from different tables or passages of the source.

Key:
A. baumannii DSM 105126 = experiment: MIC 50, broth micro-dilution, DSM strains; format: cell-based, Acinetobacter baumannii
From the text: (§1) 3.2 Against Selected Bacteria of the ESKAPE Panel and Enterococcus faecalis (DSM Strains)
(§2) Tested reference compounds. Amikacin sulfate (Cat. No. 01693, Chem-Impex), Gentamicin sulfate (Cat. No. G4918, Sigma Aldrich).
(§3) Microbial strains. Enterococcus faecalis DSM 2570, Klebsiella pneumoniae DSM 26371, Acinetobacter baumannii DSM 105126, Enterobacter cloacae 3MRGN (clinical bronchial aspirate isolate).
(§4) Culture media and equipment. BBL™ Mueller Hinton Broth 2 (Lot. BCBW1143, Cat. No. 70192, Sigma); Trypcase Soy Blood-agar plates (Cat. No. 43001, Biomérieux); Cryoinstant (contains 15% glycerol; Cat. No. 822070ZA, VWR International); GasPak™ EZ Standard Incubation Container (Cat. No. 260671, Becton Dickinson); GasPak™ EZ Campy Container System Sachets (Cat. No. 260680, Becton Dickinson); 96-well deep well plate, 1 mL (Cat. No. 0030506.200, Eppendorf); Plate lid (Cat. No. 0030131.525, Eppendorf); 96-well plate, F-bottom (Cat. No. 260860, Nunc); Incubator (Sartorius Certomat BS-1); Laminar flow (Heraeus HS12); UV/VIS meter (Perkin Elmer Lambda Bio+); Platereader (Tecan Infinite M200 Pro).
(§5) Compound preparation. Compounds were prepared in MH2 media at a concentration of 5 mM and stored at 4° C. For testing, solutions of 128 μM were prepared in MH2, for tests against E. faecalis a solution of 512 μM was prepared. Out of these working solutions, 400 μL was transferred to wells in the first column of 96-well deep well plates. Each compound was transferred in triplicate. Plates were previously filled with 200 μL of MH2 media in all wells except for the wells in the first column. After compound and antibiotic addition, the compounds were serial two-fold diluted by transferring 200 μL from the first to the second column, then from the second to the third column and so on. Finally, 200 μL was removed from the last column.
(§6) Inoculum preparation. Microorganisms used were all revived from 15% glycerol storage in Croinstant tubes at −28° C. by plating them on blood agar plates. A. baumanni, and E. cloacae were grown aerobically at 37° C., E. faecalis was grown microaerophilically at 37° C., and K. pneumoniae was grown aerobically at 37° C. Plates were stored at 4° C. for up to two weeks, after which new plates were prepared from −28° C. A single colony was inoculated in MH2 media and grown at 37° C. and 200 rpm to an optical density (measured by UV/Vis spectroscopy) of 0.6-0.8 at 600 nm. Out of these suspensions, actual inoculums were prepared by diluting them to an optical density of 0.1 in MH2 media. From these inoculums, 200 μL was transferred to each well, resulting in a final compound concentration range of 64 μM-31.3 nM for, K. pneumoniae, A. baumanni, and E. cloacae, and 256 μM-125 nM for E. faecalis. Plates inoculated with E. faecalis were placed inside a GasPak™ Container System with GasPak™ Campy Container System sachets. All plates were incubated at 200 rpm for 18 h under the microorganism culturing conditions mentioned above.
(§7) MIC determination. After 18 h of growth, 200 μL was transferred to a 96-well F-bottom plate. The optical density was determined by a plate reader at 600 nm, with 10 s shaking before reading. Triplicate measurements were averaged, and a growth curve was plotted in Excel. The first column in which the growth reached half the value of maximum growth was determined as the MIC50 value for that particular compound.
(§8) MIC50. The MIC50 of a compound was assigned at which the bacterial growth reached half the value of maximum growth.

[1] = system: Enterobacter cloacae 3MRGN (clinical bronchial aspirate isolate); experiment: MIC 50, broth micro-dilution, clinical isolate; format: cell-based; settings: E. Cloacae clinical isolate
From the text: as §1, §2, §3, §4, §5, §6, §7, §8

[2] = Acinetobacter baumannii, DSM105126, read-out: MIC 50
[3] = Enterobacter cloacae, read-out: MIC 50

Compound | MIC50 (A. baumannii DSM 105126) [µM] | MIC50 [1] [µM] | MIC50 (A. baumannii DSM 105126; [2]) [µM] | MIC50 [1, 3] [µM]
NCCC(O)C(=O)NC1CC(N)C(OC2OC(CN)C(O)C(O)C2N)C(O)C1OC1OC(CO)C(O)C(N)C1O (centres unmarked) [ABX4001, KanaB-AHB] | 0.5 (≈ 0.292 µg/mL) | 2 (≈ 1.17 µg/mL) |  | 
N=C(NC[C@@H]1CCNC1)NC1[C@@H](O)C(OC2[C@@H](F)[C@H](O[C@H]3OC(CN)[C@@H](O)CC3N)C(N)C[C@H]2NC(=O)[C@@H](O)CCN)O[C@H](CO)[C@H]1O (stereo partly drawn) [ABX5039, Tobra-AHB-F-Gua (R) pyrrolidine-3-ylmethyl] |  |  | 0.0625 (≈ 0.0435 µg/mL) | 0.25 (≈ 0.174 µg/mL)
N=C(NC[C@H]1CNCCO1)NC1[C@@H](O)C(OC2[C@@H](F)[C@H](O[C@H]3OC(CN)[C@@H](O)CC3N)C(N)C[C@H]2NC(=O)[C@@H](O)CCN)O[C@H](CO)[C@H]1O (stereo partly drawn) [ABX5043, Tobra-AHB-F-Gua (R) morpholin-2-yl methyl] |  |  | 0.0625 to 0.125 (≈ 0.0445 to 0.089 µg/mL) | 0.25 (≈ 0.178 µg/mL)
N=C(NCCN)NC1C(O)[C@@H](CO)OC(OC2C(F)[C@H](O[C@H]3OC(CN)[C@@H](O)CC3N)C(N)C[C@H]2NC(=O)[C@@H](O)CCN)[C@@H]1O (some centres unmarked) [ABX5020, Tobra-AHB-F-Gua-2-amino-ethyl] |  |  | 0.0625 to 0.125 (≈ 0.041 to 0.082 µg/mL) | 0.5 (≈ 0.328 µg/mL)
N=C(N)NC1[C@@H](O)C(OC2[C@@H](F)[C@H](O[C@H]3OC(CN)[C@@H](O)[C@H](O)C3O)C(N)C[C@H]2NC(=O)[C@@H](O)CCN)O[C@H](CO)[C@H]1O (stereo partly drawn) [ABX3003, 3′epi-KanaA-AHB-F-Gua] |  |  | 0.0625 to 0.125 (≈ 0.0394 to 0.0787 µg/mL) | 1 to 2 (≈ 0.63 to 1.26 µg/mL)
N=C(NCc1cnc[nH]1)NC1[C@@H](O)C(OC2[C@@H](F)[C@H](O[C@H]3OC(CN)[C@@H](O)CC3N)C(N)C[C@H]2NC(=O)[C@@H](O)CCN)O[C@H](CO)[C@H]1O (some centres unmarked) [ABX5050, Tobra-AHB-F-Gua imidazol-5-yl methyl] |  |  | 0.5 (≈ 0.346 µg/mL) | 1 to 2 (≈ 0.693 to 1.39 µg/mL)
NCC[C@H](O)C(=O)N[C@@H]1CC(N)[C@@H](O[C@H]2OC(CN)[C@@H](O)CC2N)[C@H](F)C1OC1O[C@H](CO)[C@@H](O)C(N)[C@H]1O (some centres unmarked) [ABX5024, Tobra-AHB-F] | 0.125 (≈ 0.0713 µg/mL) | 1 (≈ 0.571 µg/mL) |  | 
N=C(N)NC1[C@@H](O)C(OC2[C@@H](O)[C@H](O[C@H]3OC(CN)[C@@H](O)[C@H](O)C3N)C(N)C[C@H]2NC(=O)[C@@H](O)CCN)O[C@H](CO)[C@H]1O (some centres unmarked) [ABX4009, KanaB-AHB-Gua] | 0.5 (≈ 0.313 µg/mL) | 2 (≈ 1.25 µg/mL) |  | 
NCCC(O)C(=O)NC1CC(N)C(OC2OC(CN)C(O)C(O)C2O)C(F)C1OC1OC(CO)C(O)C(N)C1O (stereo not drawn) [ABX3005, 3′Epi-KanaA-AHB-F] | 1 (≈ 0.588 µg/mL) | 4 (≈ 2.35 µg/mL) |  | 
N=C(N)NC1[C@@H](O)C(OC2[C@@H](F)[C@H](O[C@H]3OC(CN)[C@@H](O)[C@H](O)C3N)C(N)C[C@H]2NC(=O)[C@@H](O)CCN)O[C@H](CO)[C@H]1O (stereo partly drawn) [ABX4004, 3′epi-KanaB-AHB-F-Gua] | 0.125 (≈ 0.0786 µg/mL) | 1 (≈ 0.629 µg/mL) |  | 
N=C(NCC1CCCO1)NC1[C@@H](O)C(OC2[C@@H](F)[C@H](O[C@H]3OC(CN)[C@@H](O)CC3N)C(N)C[C@H]2NC(=O)[C@@H](O)CCN)O[C@H](CO)[C@H]1O (some centres unmarked) [ABX5046, Tobra-AHB-F-Gua tetrahydrofuran-2-yl methyl] |  |  | 0.25 (≈ 0.174 µg/mL) | 1 (≈ 0.697 µg/mL)
N=C(N)NC1[C@@H](O)C(OC2[C@@H](O)[C@H](O[C@H]3OC(CN)[C@@H](O)CC3N)C(N)C[C@H]2NC(=O)[C@@H](O)CCN)O[C@H](CO)[C@H]1O (some centres unmarked) [ABX5005, Tobra-AHB-Gua] | 0.25 (≈ 0.153 µg/mL) | 1 (≈ 0.611 µg/mL) |  | 
N=C(NCCCO)NC1[C@@H](O)C(OC2[C@@H](F)[C@H](O[C@H]3OC(CN)[C@@H](O)CC3N)C(N)C[C@H]2NC(=O)[C@@H](O)CCN)O[C@H](CO)[C@H]1O (some centres unmarked) [ABX5041, Tobra-AHB-F-Gua 3-hydroxy-propyl] |  |  | 0.25 (≈ 0.168 µg/mL) | 1 (≈ 0.671 µg/mL)
